Read-outs that look alike come from different tables or passages of the source.
Legend:
[1] = biological target: T1, FGFR2 (Homo sapiens, UniProt P21802); test: FGFR wild type enzyme assay (HTRF KinEASE-TK); type: biochemical; settings: ATP 2 uM
T1 construct: biochemical assays using purified intracellular domains of the respective isoforms; purchased Carna Bioscience 08-134
Description: (§1) Activity against FGFR wild type and mutant enzymes were determined in biochemical assays using purified intracellular domains of the respective isoforms using HTRF KinEASE-TK assay technology from CisBio, now PerkinElmer. (Catalogue number 62TK0PEC). Briefly test compounds were tested in 11 point 1:3 serial dilutions, typical final concentration range from 10,000 nM to 0.17 nM. Test compounds were dissolved in DMSO and added to assay plates using acoustic transfer. Enzyme was pre-incubated with test compound for 30 minutes and the assay was initiated by addition of ATP and TK-peptide substrate. After 60 minutes at room temperature the reaction was quenched with detection reagent and incubated for an additional 60 minutes at room temperature. The plates were read using a multimode reader and the emission ratio of 665 nm to 615 nm was determined. This ratio was converted to percent of control (POC). [1-(high control-sample signal)/(high control-low control)]*100. Wells without compound were used to determine high control values and wells without enzyme were used to determine low control values. The POC values were fit using a four-parameter logistic model and the value where the fit curve was equal to 50 POC was reported as the IC50 using the Signals Vitro Vivo software package (PerkinElmer). Final assay conditions were: 50 mM HEPES pH7.5, 10 mM MgCl2, 1 mM EDTA, 0.01% Brij-35, 2 mM MnCl2, 1 mM DTT, and 0.5 uM TK-peptide. The enzyme source, catalogue number, final enzyme concentration, and final ATP concentration can be found in the tables 1-2 below.

[2] = biological target: T2, FGFR2 V564I (Homo sapiens, UniProt P21802, V564I); test: FGFR mutant enzyme assay (HTRF KinEASE-TK); type: biochemical; settings: ATP 0.4 uM
T2 construct: biochemical assays using purified intracellular domains of the respective isoforms; purchased Carna Bioscience 08-546
Description: as §1

[3] = biological target: T3, FGFR2 V564F (Homo sapiens, UniProt P21802, V564F); test: FGFR mutant enzyme assay (HTRF KinEASE-TK); type: biochemical; settings: ATP 1.5 uM
T3 construct: biochemical assays using purified intracellular domains of the respective isoforms; purchased SignalChem Biotech F05-12FG
Description: as §1

[4] = biological target: T4, FGFR2 N549H (Homo sapiens, UniProt P21802, N549H); test: FGFR mutant enzyme assay (HTRF KinEASE-TK); type: biochemical; settings: ATP 0.9 uM
T4 construct: biochemical assays using purified intracellular domains of the respective isoforms; purchased Carna Bioscience 08-532
Description: as §1

[5] = biological target: FGFR2-WT (Homo sapiens, UniProt P21802); test: Phosphorylated FGFR2-WT (pFGFR2-WT) cell assay, KATOIII cells; type: cell-based; settings: 1 hour incubation, phospho FGFR2 HTRF
Description: KATOIII cells were grown in the appropriate growth medium, IMDM supplemented with 20% fetal bovine serum. Cells were seeded into a 384-well at 1×10^5 cells/25 μL/well. Cells were treated with compound using three-fold serial dilutions at final concentrations ranging from 10 μM to 0.5 nM. Compound was incubated on cells for 1 hour at 37° C., 5% CO2.
Following the 1-hour incubation with compounds, cell lysates were prepared and phospho FGFR2 was measured using the HTRF Phospho-FGFR2 (TYR653/654) Detection Kits (CisBio, cat #64FGFR2Y6PEG). 8 μL of cell lysis buffer (4×) supplied with 1× Phospho and Total protein blocking reagent (CisBio, cat #64FGFR2Y6PEG, CisBio, cat #64KB1AAC) was then added to the wells. Cells were incubated with lysis buffer for 40 minutes at 4° C. under shaking conditions. Plates were centrifuged at 1500 rpm for 3 min and then 16 μL of cell lysate was transferred from the cell-culture plate to a small volume detection plate with the added premixed antibody solutions (4 μL) (CisBio, cat #64FGFR2Y6PEG). Plates were centrifuged at 1000 rpm for 1 min then incubated at 25° C. for 120 min, then overnight at 4° C. Plates were read on the En Vision multimode plate reader via HTRF dual wavelength detection. One hundred percent of control (POC) was determined using DMSO treated samples, and 0 POC was determined using the top concentration of a control compound. A 4-parameter logistic curve was fit to the POC values as a function of compound concentration to determine the IC50 value.

[6] = compound table after the examples, read-out: Enz FGFR2

FGFR2-WT, sequence (P21802 430-767 limits assumed): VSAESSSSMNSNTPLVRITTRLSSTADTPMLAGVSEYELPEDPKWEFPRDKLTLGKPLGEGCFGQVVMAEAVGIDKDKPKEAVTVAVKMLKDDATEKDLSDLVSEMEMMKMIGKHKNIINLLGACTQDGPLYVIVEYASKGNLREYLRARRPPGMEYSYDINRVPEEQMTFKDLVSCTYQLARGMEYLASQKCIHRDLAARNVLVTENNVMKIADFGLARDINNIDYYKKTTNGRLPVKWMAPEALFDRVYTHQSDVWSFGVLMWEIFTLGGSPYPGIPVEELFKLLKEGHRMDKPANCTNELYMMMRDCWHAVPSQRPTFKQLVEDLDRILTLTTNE
T4 sequence (P21802 399-821 N549H limits assumed): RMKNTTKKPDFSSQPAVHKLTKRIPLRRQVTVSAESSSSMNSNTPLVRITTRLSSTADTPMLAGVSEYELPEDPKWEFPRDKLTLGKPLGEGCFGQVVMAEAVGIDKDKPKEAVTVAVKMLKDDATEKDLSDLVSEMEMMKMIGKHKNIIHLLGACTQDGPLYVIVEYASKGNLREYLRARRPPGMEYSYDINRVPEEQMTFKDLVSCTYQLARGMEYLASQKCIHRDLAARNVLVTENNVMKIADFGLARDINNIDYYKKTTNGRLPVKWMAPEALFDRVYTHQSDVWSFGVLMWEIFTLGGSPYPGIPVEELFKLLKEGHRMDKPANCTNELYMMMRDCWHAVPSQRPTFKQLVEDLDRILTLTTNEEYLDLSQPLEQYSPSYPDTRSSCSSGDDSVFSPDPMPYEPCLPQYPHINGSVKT
T2 sequence (P21802 399-821 V564I limits assumed): as the sequence (P21802 399-821 N549H limits assumed) above, with H151N, V166I counted along it
T3 sequence (P21802 399-821 V564F limits assumed): as the sequence (P21802 399-821 N549H limits assumed) above, with H151N, V166F counted along it
T1 sequence (P21802 399-821 limits assumed): as the sequence (P21802 399-821 N549H limits assumed) above, with H151N counted along it

| Structure (SMILES) | IC50 ([1]; Table 3, read-out: FGFR2 Enz) [nM] | IC50 [1, 6] [nM] | IC50 [2] [nM] | IC50 [3] [nM] | IC50 [4] [nM] | IC50 [5] [nM] |
| --- | --- | --- | --- | --- | --- | --- |
| C[C@@H](Oc1cc(-c2ccc(N3CC[C@H](O)[C@H](O)C3)nc2)cn2ncc(C#N)c12)c1ccc(F)cn1 [Compound 26, 6-(6-((3R,4S)-3,4-dihydroxypiperidin-1-yl)pyridin-3-yl)-4-((R)-1-(5-fluoropyridin-2-yl)ethoxy)pyrazolo[1,5-a]pyridine-3-carbonitrile] | 0.5 | 0.5 | 1 | 1 | 0.3 | 4 |
| C[C@@H](Oc1cc(-c2cnn([C@H]3CC[C@H](O)CC3)c2)cn2ncc(C#N)c12)c1ccc(F)cn1 [Compound 55, 4-((R)-1-(5-fluoropyridin-2-yl)ethoxy)-6-(1-((1r,4R)-4-hydroxycyclohexyl)-1H-pyrazol-4-yl)pyrazolo[1,5-a]pyridine-3-carbonitrile] | 0.2 | 0.2 | 0.6 | 0.3 | 0.13 | 1.6 |
| C[C@@H](Oc1cc(-c2ccc(N3CCC(O)CC3)nc2)cn2ncc(C#N)c12)c1ccc(F)cn1 [Compound 56, (R)-4-(1-(5-fluoropyridin-2-yl)ethoxy)-6-(6-(4-hydroxypiperidin-1-yl)pyridin-3-yl)pyrazolo[1,5-a]pyridine-3-carbonitrile] | 0.2 | 0.2 | 1 | 0.6 | 0.2 | 3.4 |
| Cc1c(-c2cc(O[C@H](C)c3ccc(F)cn3)c3c(C#N)cnn3c2)cnn1[C@H]1CCCN(C(=O)C2(O)CCC2)C1 [Compound 40, 4-((R)-1-(5-fluoropyridin-2-yl)ethoxy)-6-(1-((S)-1-(1-hydroxycyclobutane-1-carbonyl)piperidin-3-yl)-5-methyl-1H-pyrazol-4-yl)pyrazolo[1,5-a]pyridine-3-carbonitrile] | 1 | 1 | 3 | 2 | 0.6 | 6.7 |
| Cc1c(-c2cc(O[C@H](C)c3ccc(F)cn3)c3c(C#N)cnn3c2)cnn1C [Compound 21, 6(R)-6-(1,5-dimethyl-1H-pyrazol-4-yl)-4-(1-(5-fluoropyridin-2-yl)ethoxy)pyrazolo[1,5-a]pyridine-3-carbonitrile] | 1.7 | 1.7 | 11 | 6 | 3 | 24 |
| Cc1c(-c2cc(O[C@H](C)c3ccc(F)cn3)c3c(C#N)cnn3c2)cnn1C[C@H](O)CO [Compound 27, 6-(1-((S)-2,3-dihydroxypropyl)-5-methyl-1H-pyrazol-4-yl)-4-((R)-1-(5-fluoropyridin-2-yl)ethoxy)pyrazolo[1,5-a]pyridine-3-carbonitrile] | 3 | 3 | 17 | 11 | 5 | 23 |
| Cc1c(-c2cc(O[C@H](C)c3ccc(F)cn3)c3c(C#N)cnn3c2)cnn1[C@H]1CCC[C@H](O)C1 [Compound 67, 4-((R)-1-(5-fluoropyridin-2-yl)ethoxy)-6-(1-((1S,3S)-3-hydroxycyclohexyl)-5-methyl-1H-pyrazol-4-yl)pyrazolo[1,5-a]pyridine-3-carbonitrile] | 0.4 | 0.4 | 1.4 | 1 | 0.4 | 4 |
| Cc1c(-c2cc(O[C@H](C)c3ccc(F)cn3)c3c(C#N)cnn3c2)cnn1[C@H]1CC[C@@H](O)CC1 [Compound 46, 4-((R)-1-(5-fluoropyridin-2-yl)ethoxy)-6-(1-((1s,4S)-4-hydroxycyclohexyl)-5-methyl-1H-pyrazol-4-yl)pyrazolo[1,5-a]pyridine-3-carbonitrile] | 0.3 | 0.3 | 1 | 1 | 0.3 | 3 |
| C[C@@H](Oc1cc(-c2nnn(C)c2N)cn2ncc(C#N)c12)c1ccc(F)cn1 [Compound 34, (R)-6-(5-amino-1-methyl-1H-1,2,3-triazol-4-yl)-4-(1-(5-fluoropyridin-2-yl)ethoxy)pyrazolo[1,5-a]pyridine-3-carbonitrile] | 2.6 | 2.6 | 12 | 10 | 3 | 17 |
| Cc1c(-c2cc(O[C@@H](C)c3ccc(F)cn3)c3c(C#N)cnn3c2)cnn1[C@H]1CC[C@H](O)CC1 [Compound 45, 4-((S)-1-(5-fluoropyridin-2-yl)ethoxy)-6-(1-((1r,4S)-4-hydroxycyclohexyl)-5-methyl-1H-pyrazol-4-yl)pyrazolo[1,5-a]pyridine-3-carbonitrile] | 6.5 | 6.5 | 23 | 13 | 7 | 60 |
| CN=S1(=O)CCC(n2cc(-c3cc(O[C@H](C)c4ccc(F)cn4)c4c(C#N)cnn4c3)cn2)CC1 (stereo partly drawn) [Compound 58, (R)-4-(1-(5-fluoropyridin-2-yl)ethoxy)-6-(1-(1-(methylimino)-1-oxidohexahydro-116-thiopyran-4-yl)-1H-pyrazol-4-yl)pyrazolo[1,5-a]pyridine-3-carbonitrile] | 0.15 | 0.15 | 1 | 0.45 | 0.15 | 1.6 |
| Cc1c(-c2cc(O[C@H](C)c3ncccc3F)c3c(C#N)cnn3c2)cnn1[C@H]1CCCNC1 [Compound 10, 4-((R)-1-(3-fluoropyridin-2-yl)ethoxy)-6-(5-methyl-1-((S)-piperidin-3-yl)-1H-pyrazol-4-yl)pyrazolo[1,5-a]pyridine-3-carbonitrile] | 0.3 | 0.3 | 1 | 0.8 | 0.55 | 5 |
| C[C@@H](Oc1cc(-c2cnn(C3CCNCC3)c2)cn2ncc(C#N)c12)c1ncccc1F [Compound 8, (R)-4-(1-(3-fluoropyridin-2-yl)ethoxy)-6-(1-(piperidin-4-yl)-1H-pyrazol-4-yl)pyrazolo[1,5-a]pyridine-3-carbonitrile] | 0.2 | 0.2 | 0.1 | 0.08 | 0.05 | 2 |
| Cc1c(-c2cc(O[C@H](C)c3ccc(F)cn3)c3c(C#N)cnn3c2)cnn1[C@H]1CCCN(C[C@H](O)CO)C1 [Compound 37, 6-(1-((S)-1-((S)-2,3-dihydroxypropyl)piperidin-3-yl)-5-methyl-1H-pyrazol-4-yl)-4-((R)-1-(5-fluoropyridin-2-yl)ethoxy)pyrazolo[1,5-a]pyridine-3-carbonitrile] | 0.5 | 0.5 | 1.6 | 1 | 0.3 | 5.6 |
| Cc1c(-c2cc(O[C@H](CO)c3ccc(F)cn3)c3c(C#N)cnn3c2)cnn1[C@H]1CC[C@H](O)CC1 [Compound 65, 4-((S)-1-(5-fluoropyridin-2-yl)-2-hydroxyethoxy)-6-(1-((1r,4S)-4-hydroxycyclohexyl)-5-methyl-1H-pyrazol-4-yl)pyrazolo[1,5-a]pyridine-3-carbonitrile] | 3 | 3 | 10.6 | 9.5 | 3.5 | 21 |

Source: US12351581B2, “Compounds for FGFR inhibition” (Cogent Biosciences, Inc., priority 2023, dated 2025)
